Source: patent US9096601B2 (CSPC Zhongqi Pharmaceutical Technology (Shijiazhuang) Co., …, priority 2010, dated 2015)
Like-named read-outs stand apart in the source and are kept apart here.

How the values were obtained:
ALK = ALK (Homo sapiens (Human), UniProt Q9UM73); assay: Kinase inhibitory activity, isotopic labeling (γ-33P-ATP); type: biochemical; settings: compound at 10 μM
Method: (§1) The object of this assay was to test the inventive compounds for the kinase inhibitory activity in vitro. In this assay, an isotopic labeling method was used to label the γ phosphate group on ATP. EGFR (including wild type, L858R mutant type and L858R/T790M double mutant type), VEGFR2, ALK, BTK, c-KIT, c-SRC, MET, PDGFRα and FLT3 kinases were tested in vitro for the activity inhibition. Staurosporine was used as a reference molecule (or referred to as a positive control). […] The IC50 value can be obtained by the calculation of the inhibitory rates at a series of different concentrations of the tested compounds.
(§2) To a reaction tube were successively added the buffer solution (8 mM MOPS, pH 7.0, 0.2 mM EDTA, 10 mM MnCl2), the kinase to be tested (5-10 mU) (EGFR/ALK/BTK/c-KIT/c-SRC/MET/PDGFRα/VEGFR2), the substrate for the kinase to be tested (a reference material), 10 mM of the solution of magnesium acetate and γ-^33 P-ATP, and different concentrations of the tested compounds. […] The reaction was terminated with […] of the 3% phosphate buffer solution. 10 μL of the reaction liquid was titrated on the Filtermat A membrane. The membrane was washed with 75 mM of the phosphate solution thrice (5 minutes each time), and then with methanol once, and finally dried. The membrane was subjected to a scintillation counting. The value of the scintillation counting reflected the phosphorylation level of the substrate and therefore could characterize the inhibition of the kinase activity.

BTK = BTK (Homo sapiens (Human), UniProt Q06187); assay: as above; type: biochemical; settings: compound at 10 μM
BTK, sequence (Q06187 whole entry): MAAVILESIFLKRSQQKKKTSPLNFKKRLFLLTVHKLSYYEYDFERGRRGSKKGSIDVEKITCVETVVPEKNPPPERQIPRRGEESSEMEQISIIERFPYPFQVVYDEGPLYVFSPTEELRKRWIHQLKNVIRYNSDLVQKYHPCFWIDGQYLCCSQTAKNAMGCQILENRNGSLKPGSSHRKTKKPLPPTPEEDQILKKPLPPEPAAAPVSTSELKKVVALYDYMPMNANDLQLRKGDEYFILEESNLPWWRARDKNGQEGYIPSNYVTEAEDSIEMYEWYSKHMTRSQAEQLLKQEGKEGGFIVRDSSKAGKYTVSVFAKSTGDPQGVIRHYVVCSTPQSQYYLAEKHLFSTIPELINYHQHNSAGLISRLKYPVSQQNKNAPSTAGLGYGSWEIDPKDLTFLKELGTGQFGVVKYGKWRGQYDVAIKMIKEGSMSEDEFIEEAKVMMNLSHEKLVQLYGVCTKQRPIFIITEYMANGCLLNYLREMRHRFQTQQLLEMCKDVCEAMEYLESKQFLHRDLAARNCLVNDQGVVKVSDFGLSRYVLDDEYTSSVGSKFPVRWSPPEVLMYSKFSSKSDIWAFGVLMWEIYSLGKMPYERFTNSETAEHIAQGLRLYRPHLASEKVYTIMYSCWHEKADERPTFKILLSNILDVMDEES
Method: as §1, §2

FLT3 = FLT3 (Homo sapiens (Human), UniProt P36888); assay: as above; type: biochemical; settings: compound at 10 μM
Method: as §1, §2

MET = MET (Homo sapiens (Human), UniProt P08581); assay: as above; type: biochemical; settings: compound at 10 μM
Method: as §1, §2

PDGFRα = PDGFRα (Homo sapiens (Human), UniProt P16234); assay: as above; type: biochemical; settings: compound at 10 μM
PDGFRα, sequence (P16234 24-1089): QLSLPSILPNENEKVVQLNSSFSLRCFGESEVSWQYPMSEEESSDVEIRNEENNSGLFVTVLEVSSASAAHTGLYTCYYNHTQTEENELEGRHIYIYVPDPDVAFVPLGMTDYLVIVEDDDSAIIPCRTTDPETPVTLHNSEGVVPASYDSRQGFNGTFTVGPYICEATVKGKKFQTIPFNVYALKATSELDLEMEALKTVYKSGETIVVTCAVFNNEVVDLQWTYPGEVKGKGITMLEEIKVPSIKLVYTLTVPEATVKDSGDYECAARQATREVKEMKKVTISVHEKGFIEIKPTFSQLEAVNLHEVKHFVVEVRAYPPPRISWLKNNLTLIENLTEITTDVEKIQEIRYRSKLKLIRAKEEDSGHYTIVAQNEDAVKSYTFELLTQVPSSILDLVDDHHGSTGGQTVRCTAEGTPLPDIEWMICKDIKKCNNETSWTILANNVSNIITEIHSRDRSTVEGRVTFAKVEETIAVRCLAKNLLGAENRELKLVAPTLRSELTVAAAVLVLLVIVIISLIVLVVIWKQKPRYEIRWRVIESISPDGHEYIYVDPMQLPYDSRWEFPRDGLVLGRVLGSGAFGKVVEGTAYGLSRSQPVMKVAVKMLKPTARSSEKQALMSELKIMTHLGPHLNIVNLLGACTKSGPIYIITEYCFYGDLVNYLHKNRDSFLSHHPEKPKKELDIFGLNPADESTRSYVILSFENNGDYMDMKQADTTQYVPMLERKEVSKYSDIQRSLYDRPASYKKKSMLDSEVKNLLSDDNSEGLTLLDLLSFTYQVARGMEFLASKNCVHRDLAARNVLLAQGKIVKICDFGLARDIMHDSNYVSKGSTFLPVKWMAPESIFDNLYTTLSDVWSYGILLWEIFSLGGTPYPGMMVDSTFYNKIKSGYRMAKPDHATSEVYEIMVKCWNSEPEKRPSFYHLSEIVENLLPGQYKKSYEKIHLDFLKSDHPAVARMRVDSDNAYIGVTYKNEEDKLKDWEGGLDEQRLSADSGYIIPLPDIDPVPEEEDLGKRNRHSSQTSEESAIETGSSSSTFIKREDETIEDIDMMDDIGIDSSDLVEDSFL
Method: as §1, §2

VEGFR2 = VEGFR2 (Homo sapiens (Human), UniProt P35968); assay: as above; type: biochemical
Method: as §1, §2

c-KIT = c-KIT (Homo sapiens (Human), UniProt P10721); assay: as above; type: biochemical; settings: compound at 10 μM
c-KIT, sequence (P10721 26-976): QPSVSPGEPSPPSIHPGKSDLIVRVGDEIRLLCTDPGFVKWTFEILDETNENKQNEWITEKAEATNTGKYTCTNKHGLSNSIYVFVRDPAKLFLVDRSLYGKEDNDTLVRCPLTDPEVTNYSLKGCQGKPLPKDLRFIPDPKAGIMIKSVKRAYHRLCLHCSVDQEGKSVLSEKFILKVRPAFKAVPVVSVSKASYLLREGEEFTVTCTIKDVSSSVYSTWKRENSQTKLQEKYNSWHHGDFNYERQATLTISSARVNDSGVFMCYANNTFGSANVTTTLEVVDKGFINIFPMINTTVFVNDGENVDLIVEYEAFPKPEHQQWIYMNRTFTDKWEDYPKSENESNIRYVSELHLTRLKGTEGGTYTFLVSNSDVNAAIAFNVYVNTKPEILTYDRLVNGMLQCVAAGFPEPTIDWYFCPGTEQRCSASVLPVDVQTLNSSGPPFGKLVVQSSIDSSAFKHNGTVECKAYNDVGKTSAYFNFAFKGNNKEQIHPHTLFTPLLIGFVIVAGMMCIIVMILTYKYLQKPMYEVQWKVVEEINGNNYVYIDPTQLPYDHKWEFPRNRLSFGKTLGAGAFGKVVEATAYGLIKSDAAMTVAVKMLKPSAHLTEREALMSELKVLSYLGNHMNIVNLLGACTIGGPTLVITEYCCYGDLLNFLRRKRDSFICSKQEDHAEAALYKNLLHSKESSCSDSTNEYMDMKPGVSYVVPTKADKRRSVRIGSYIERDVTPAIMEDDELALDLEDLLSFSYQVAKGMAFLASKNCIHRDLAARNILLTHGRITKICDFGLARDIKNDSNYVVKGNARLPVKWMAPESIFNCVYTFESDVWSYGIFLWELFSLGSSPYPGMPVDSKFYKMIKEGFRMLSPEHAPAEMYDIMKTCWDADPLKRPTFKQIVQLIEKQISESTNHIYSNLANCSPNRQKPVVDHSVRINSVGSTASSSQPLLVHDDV
Method: as §1, §2

c-SRC = c-SRC (Homo sapiens (Human), UniProt P12931); assay: as above; type: biochemical; settings: compound at 10 μM
c-SRC, sequence (P12931 whole entry, looked up): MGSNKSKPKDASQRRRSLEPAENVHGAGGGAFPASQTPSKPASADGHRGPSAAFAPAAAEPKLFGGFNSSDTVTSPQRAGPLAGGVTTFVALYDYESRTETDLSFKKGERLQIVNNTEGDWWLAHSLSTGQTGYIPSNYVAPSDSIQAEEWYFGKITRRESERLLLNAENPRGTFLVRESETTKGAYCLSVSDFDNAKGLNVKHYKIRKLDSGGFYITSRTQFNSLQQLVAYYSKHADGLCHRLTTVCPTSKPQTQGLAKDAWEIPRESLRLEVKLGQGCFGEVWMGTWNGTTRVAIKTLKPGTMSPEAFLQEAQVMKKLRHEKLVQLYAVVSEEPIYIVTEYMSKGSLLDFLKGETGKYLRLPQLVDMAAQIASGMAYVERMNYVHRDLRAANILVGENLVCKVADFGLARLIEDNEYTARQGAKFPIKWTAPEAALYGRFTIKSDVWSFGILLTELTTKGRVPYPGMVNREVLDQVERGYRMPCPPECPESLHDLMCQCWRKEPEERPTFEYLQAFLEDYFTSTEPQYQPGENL
Method: as §1, §2

[1] = tested on: non-small cell lung carcinoma cell strain H1975 (EGFR L858R/T790M mutation); assay: In-vitro tumor cell proliferation inhibition, MTT; type: cell-based, human; settings: 72 hours
Method: (§3) The object of this assay was to test the inventive compounds for the inhibitory activity of in-vitro tumor cell proliferation. The MTT (tetreamethyl-azo-zole-salt) colorimetric method was used in this assay.
(§4) All of the above-mentioned non-small cell lung carcinoma cell strains and the breast carcinoma cell strain BT 474 were cultured with a RPMI-1640 complete culture medium containing 10% fetal bovine serum, 100 U/ml penicillin and 100 μg/ml streptomycin under 5% CO2 and at 37° C. The other cell strains were cultured with a DMEM complete culture medium containing 10% fetal bovine serum (having a MV4-11 cell content of 20%), 100 U/ml penicillin and 100 μg/ml streptomycin under 5% CO2 and 37° C.
(§5) A cell suspension having a cell concentration of 1-2×10^4 cells/ml was treated with a complete cell culture solution to adjust the cell concentration, wherein the cell concentrations for HCC827 and MV4-11 were adjusted to 6×10^4 cells/ml and 1×10^5 cells/ml respectively. The cell suspension was inoculated in a 96-well plate with 200 μl cell suspension/well and cultured overnight. Next day, the supernatant was drawn off and discarded. Then, the cells were treated with the tested compounds in a gradient concentration respectively. In the meanwhile, a negative control group free of the drug substance and an isovolumetric solvent control group (having a DMSO concentration of 1%) were used. The triplicate wells were used for each of dose groups. The culturing was conducted at 37° C. under 5% CO2. After 72 hours, […] having a concentration of 5 mg/ml was added to each of wells. The culturing was further conducted for 2-4 hours. The supernatant was discarded. Then […] was added to each of wells. The contents in the well were mixed homogenously by oscillation for 15 minutes. The absorbance (A) value was measured with a microplate reader at λ=570 nm (the A value is in the direct proportion to the number of living cells) and averaged. The relative cell proliferation inhibitory rate is (A570 control-group−A570 dose-group)/A570 control-group×100%. The assay was repeated for at least three times. The data was expressed as number average. The statistical data were analyzed using t-test. P<0.05 was considered significant. The cell proliferation inhibition of the following compounds was expressed as IC50 or inhibitory rate.

[2] = tested on: non-small cell lung carcinoma cell strain H292 (EGFR WT); assay: In-vitro tumor cell proliferation inhibition, MTT; type: cell-based, human; settings: 72 hours
Method: as §3, §4, §5

[3] = tested on: non-small cell lung carcinoma cell strain HCC827; assay: In-vitro tumor cell proliferation inhibition, MTT; type: cell-based, human; settings: 72 hours
Method: as §3, §4, §5

[4] = tested on: non-small cell lung carcinoma cell strain PC-9 (EGFR delE746-A750 deletion mutation); assay: In-vitro tumor cell proliferation inhibition, MTT; type: cell-based, human; settings: 72 hours
Method: as §3, §4, §5

[5] = tested on: acute myelogenous leukemia cell strain MV4-11; assay: In-vitro tumor cell proliferation inhibition, MTT; type: cell-based, human
From the text: as §3
(§6) Human non-small cell lung carcinoma cell strains HCC827, PC-9, H1975 (EGFR L858R/T790M mutation) and H292 (EGFR WT), and other tumor type cell strains, including human acute myelogenous leukemia cell strain MV4-11, human chronic granulocytic leukemia cell strain K562, human squamous cell carcinoma cell strain A431, human breast carcinoma cell strains MDA-MB-468 and BT 474, human colon cancer cell strains SW480, HCT116 and SW620, human liver cancer cell strain Hep G2, human gastric cancer cell strain MK-45, and human malignant melanoma cell strain A375 used in this assay were all purchased from ATCC company, USA and kept in the laboratory. All of the above-mentioned non-small cell lung carcinoma cell strains and the breast carcinoma cell strain BT 474 were cultured with a RPMI-1640 complete culture medium containing 10% fetal bovine serum, 100 U/ml penicillin and 100 μg/ml streptomycin under 5% CO2 and at 37° C. The other cell strains were cultured with a DMEM complete culture medium containing 10% fetal bovine serum (having a MV4-11 cell content of 20%), 100 U/ml penicillin and 100 μg/ml streptomycin under 5% CO2 and 37° C.
as §5

[6] = tested on: breast carcinoma cell strain BT474; assay: In-vitro tumor cell proliferation inhibition, MTT; type: cell-based, human
From the text: as §3, §6, §5

[7] = tested on: breast carcinoma cell strain MDA-MB-468; assay: In-vitro tumor cell proliferation inhibition, MTT; type: cell-based, human
From the text: as §3, §6, §5

[8] = tested on: chronic granulocytic leukemia cell strain K562; assay: In-vitro tumor cell proliferation inhibition, MTT; type: cell-based, human
From the text: as §3, §6, §5

[9] = tested on: colon cancer cell strain HCT116; assay: In-vitro tumor cell proliferation inhibition, MTT; type: cell-based, human
From the text: as §3, §6, §5

[10] = tested on: colon cancer cell strain SW480; assay: In-vitro tumor cell proliferation inhibition, MTT; type: cell-based, human
From the text: as §3, §6, §5

[11] = tested on: colon cancer cell strain SW620; assay: In-vitro tumor cell proliferation inhibition, MTT; type: cell-based, human
From the text: as §3, §6, §5

[12] = tested on: gastric cancer cell strain MK-45; assay: In-vitro tumor cell proliferation inhibition, MTT; type: cell-based, human; settings: 72 hours, read-out: MK45 (IC50)
From the text: as §3, §6, §5

[13] = tested on: liver cancer cell strain Hep G2; assay: In-vitro tumor cell proliferation inhibition, MTT; type: cell-based, human
From the text: as §3, §6, §5

[14] = tested on: malignant melanoma cell strain A375; assay: In-vitro tumor cell proliferation inhibition, MTT; type: cell-based, human
From the text: as §3, §6, §5

[15] = tested on: squamous cell carcinoma cell strain A431; assay: In-vitro tumor cell proliferation inhibition, MTT; type: cell-based, human
From the text: as §3, §6, §5

[16] = 72 hours, read-out: HEPG2 (IC50)

ALK, sequence (Q9UM73 19-1620): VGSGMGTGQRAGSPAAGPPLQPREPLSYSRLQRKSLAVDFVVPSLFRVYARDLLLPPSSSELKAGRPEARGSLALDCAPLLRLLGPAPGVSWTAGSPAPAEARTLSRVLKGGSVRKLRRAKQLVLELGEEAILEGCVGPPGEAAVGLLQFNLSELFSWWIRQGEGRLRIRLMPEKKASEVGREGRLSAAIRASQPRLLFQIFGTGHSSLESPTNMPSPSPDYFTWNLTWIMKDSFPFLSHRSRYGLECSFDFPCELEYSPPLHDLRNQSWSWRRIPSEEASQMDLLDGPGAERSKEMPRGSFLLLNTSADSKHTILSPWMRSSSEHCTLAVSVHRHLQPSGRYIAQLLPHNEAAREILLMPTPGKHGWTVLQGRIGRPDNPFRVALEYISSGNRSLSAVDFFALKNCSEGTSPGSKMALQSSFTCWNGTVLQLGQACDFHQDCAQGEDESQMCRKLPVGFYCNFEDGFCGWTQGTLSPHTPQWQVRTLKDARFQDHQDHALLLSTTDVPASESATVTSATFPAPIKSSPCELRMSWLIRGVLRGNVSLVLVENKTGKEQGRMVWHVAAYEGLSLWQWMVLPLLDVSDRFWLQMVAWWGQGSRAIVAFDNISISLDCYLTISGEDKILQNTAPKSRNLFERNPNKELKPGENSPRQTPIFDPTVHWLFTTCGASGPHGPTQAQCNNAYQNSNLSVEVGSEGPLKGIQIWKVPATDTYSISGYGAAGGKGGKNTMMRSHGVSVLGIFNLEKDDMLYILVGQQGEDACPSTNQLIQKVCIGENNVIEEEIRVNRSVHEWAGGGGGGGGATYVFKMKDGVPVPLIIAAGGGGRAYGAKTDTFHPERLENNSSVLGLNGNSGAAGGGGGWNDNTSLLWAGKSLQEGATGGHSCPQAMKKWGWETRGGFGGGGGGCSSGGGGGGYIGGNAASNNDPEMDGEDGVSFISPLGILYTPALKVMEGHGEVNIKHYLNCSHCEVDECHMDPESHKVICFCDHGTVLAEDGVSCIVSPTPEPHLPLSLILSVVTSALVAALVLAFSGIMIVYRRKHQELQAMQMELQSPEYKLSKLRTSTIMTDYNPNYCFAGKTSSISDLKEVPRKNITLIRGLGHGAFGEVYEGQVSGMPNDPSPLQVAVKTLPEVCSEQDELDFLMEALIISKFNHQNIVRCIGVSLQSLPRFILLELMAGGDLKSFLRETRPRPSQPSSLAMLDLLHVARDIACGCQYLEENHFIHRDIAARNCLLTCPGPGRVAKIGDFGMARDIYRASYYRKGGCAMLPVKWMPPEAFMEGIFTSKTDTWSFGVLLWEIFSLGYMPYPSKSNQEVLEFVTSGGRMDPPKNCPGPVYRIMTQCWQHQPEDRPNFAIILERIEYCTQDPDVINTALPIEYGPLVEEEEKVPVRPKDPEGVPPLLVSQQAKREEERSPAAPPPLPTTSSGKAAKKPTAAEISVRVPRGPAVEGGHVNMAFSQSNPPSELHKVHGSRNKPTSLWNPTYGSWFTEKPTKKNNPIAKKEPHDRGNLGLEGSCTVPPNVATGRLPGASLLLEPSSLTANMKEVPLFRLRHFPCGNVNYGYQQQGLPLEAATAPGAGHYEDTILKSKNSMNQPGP

| Compound | The kinase activity inhibitory rate (%) by the tested compounds at 10 μM ALK (ALK) | The kinase activity inhibitory rate (%) by the tested compounds at 10 μM BTK (BTK) | The kinase activity inhibitory rate (%) by the tested compounds at 10 μM FLT3 (FLT3) | The kinase activity inhibitory rate (%) by the tested compounds at 10 μM MET (MET) | The kinase activity inhibitory rate (%) by the tested compounds at 10 μM PDGFRα (PDGFRα) | IC50 (VEGFR2; ATP 90 μM (Km)) | The kinase activity inhibitory rate (%) by the tested compounds at 10 μM c-KIT (c-KIT) | The kinase activity inhibitory rate (%) by the tested compounds at 10 μM c-SRC (c-SRC) | IC50 [1] | IC50 [2] | IC50 [3] | IC50 [4] | IC50 ([5]; 72 hours) | IC50 ([6]; 72 hours) | IC50 ([7]; 72 hours) | IC50 ([8]; 72 hours) | IC50 ([9]; 72 hours) | IC50 ([10]; 72 hours) | IC50 ([11]; 72 hours) | IC50 [12] | also measured |
| --- | --- | --- | --- | --- | --- | --- | --- | --- | --- | --- | --- | --- | --- | --- | --- | --- | --- | --- | --- | --- | --- |
| CC(C)n1c(Nc2ccc(OCc3cccc(F)c3)c(Cl)c2)nc2cnc(Nc3ccc(N4CCN(C)CC4)cc3)nc21 [Compounds 8-19] | 90% | 71% | 43% | 97% | 34% | > 1000 nM | 12% | 97% | 7320 nM | 316 nM | 912 nM | 459 nM | 4780 nM | 4990 nM | 9980 nM | 2790 nM | > 1000 nM | > 10000 nM | 1990 nM | 1010 nM | IC50 [13, 16]: 5420 nM; IC50 ([14]; 72 hours): 1660 nM; IC50 ([15]; 72 hours): 9320 nM |
| CN1CCN(c2ccc(Nc3ncc4nc(Nc5ccccc5)n(C5CCCC5)c4n3)cc2)CC1 [Compounds 8-26] | 71% | 99% | 86% | 86% | 95% | 7 nM | 94% | 99% | 369 nM | 10.7 nM | 1.1 nM | 0.2 nM | 93 nM | 107 nM | 299 nM | 120 nM | 239 nM | 3440 nM | 282 nM | > 1000 nM | IC50 [13, 16]: 6260 nM; IC50 ([14]; 72 hours): 378 nM; IC50 ([15]; 72 hours): 1050 nM |
| CC(C)n1c(Nc2ccc(F)c(Cl)c2)nc2cnc(Nc3ccc(C(=O)NN4CCN(C)CC4)cc3F)nc21 [Compound 8-5, 3-fluoro-4-(9-isopropyl-8-(3-chloro-4-fluorophenylamino)-9H-purin-2-ylamino)-N-(4-methylpiperazin-1-yl)benzamide] |  |  |  |  |  |  |  |  |  |  |  |  |  |  |  |  |  |  |  |  | inhibition at 10 µM (ALK; read-out: The kinase activity inhibitory rate (%) by the tested compounds at 10 μM ALK): 54%; inhibition at 10 µM (BTK; read-out: The kinase activity inhibitory rate (%) by the tested compounds at 10 μM BTK): 78%; inhibition at 10 µM (FLT3; read-out: The kinase activity inhibitory rate (%) by the tested compounds at 10 μM FLT3): 35%; inhibition at 10 µM (MET; read-out: The kinase activity inhibitory rate (%) by the tested compounds at 10 μM MET): 64%; inhibition at 10 µM (PDGFRα; read-out: The kinase activity inhibitory rate (%) by the tested compounds at 10 μM PDGFRα): 19%; IC50 (VEGFR2): > 1000 nM; inhibition at 10 µM (c-KIT; read-out: The kinase activity inhibitory rate (%) by the tested compounds at 10 μM c-KIT): 54%; inhibition at 10 µM (c-SRC; read-out: The kinase activity inhibitory rate (%) by the tested compounds at 10 μM c-SRC): 32%; IC50 ([5]; Homo sapiens, MV4-11, 72 hours): 1770 nM; IC50 ([6]; Homo sapiens, BT-474, 72 hours): 1860 nM; IC50 ([7]; Homo sapiens, MDA-MB-468, 72 hours): 6130 nM; IC50 ([8]; Homo sapiens, K562, 72 hours): 3730 nM; IC50 ([9]; Homo sapiens, HCT-116, 72 hours): 7810 nM; IC50 ([10]; Homo sapiens, SW480, 72 hours): > 10000 nM; IC50 ([11]; Homo sapiens, SW-620, 72 hours): 5570 nM; IC50 ([12]; Homo sapiens): > 1000 nM; IC50 ([13]; Homo sapiens, HepG2, 72 hours): > 10000 nM; IC50 ([14]; Homo sapiens, A-375, 72 hours): > 1000 nM; IC50 ([15]; Homo sapiens, A-431, 72 hours): 9290 nM |
